Consider one molecule from US20250268844A1, “ANTICANCER AGENTS BASED ON CYCLOPENTENONES” (UNIVERSITY OF CRETE, priority 2022, published 2025).

“Also recorded” adds a separate entry of the source.

In assay [1] the test system is 2780CP, a cis-platin-resistant derivative of A2780. Nature of the assay: MTT conversion assay, 2780CP. It is filed as cell-based, human. On the procedure:
(§1) In particular, Enone-1 and Enone-2 were tested for cytotoxic activity in 17 cell lines representing a broad spectrum of human tumors. They include human colorectal carcinoma (Caco2, RKO, HCT15, HT29), liver (HepG2), lung (A549), ovarian carcinoma (A2780, 2780CP, AGE60, SKOV3), anaplastic large cell lymphoma (Mac1 and Mac2a), breast carcinoma (MDA-MB-231), cervical (HeLa), bladder cancer (VM-CUB-1), melanoma (BRO), and multiple myeloma (MR20).
(§2) Each assay was performed in triplicate and repeated in 2-3 independent experiments. Specifically, to measure cell survival, 20 μl of 10 mg/ml MTT (3-([…])-2,5-diphenyl tetrazolium bromide; Sigma) was added to each well and the plates were incubated at 37° C. in 5% CO2 for 3 hours. The supernatant was removed and the formed crystals were dissolved in 200 μl dimethyl sulphoxide. The plates were then analysed at 450 nm on a plate reader. Growth inhibition (reduction in survival) was calculated by expressing the differences in optical densities between treatment wells and control wells as a percentage of the control.
Resistance to platinum-based chemotherapy is a major problem in oncology that impacts therapeutic options and limits patient survival. This is relevant to several types of malignancy, including ovarian cancer where platinum resistance frequently occurs. As Enone-1 and 2 show efficacy in reducing survival of A2780 ovarian carcinoma cells, the drugs were also tested in 2780CP, a cis-platin-resistant derivative of A2780 [13].

Assay [2] relates to HT29 colorectal carcinoma cells. Description: MTT conversion assay, HT29. The note with it: Homo sapiens, HT-29, HT29, colon, 48 hrs treatment. It is filed as cell-based, human. On the procedure:
as §1, §2

Assay [3] concerns Caco-2 colorectal carcinoma cells. Nature of the assay: MTT conversion assay, Caco-2. Format: cell-based. As to conditions: Homo sapiens, Caco-2, colon, 48 hrs treatment. On the procedure:
as §1, §2

In another assay the test system is A549 lung cells. Description: MTT conversion assay, A549. The note with it: Homo sapiens, 48 hrs treatment. Format: cell-based, human. As for the experimental part: as §1, §2
Assay [4] deals with MDA-MB-231 breast carcinoma cells. Nature of the assay: MTT conversion assay, MDA-MB-231. Format: cell-based, human. As to conditions: Homo sapiens, 48 hrs treatment. As for the experimental part:
as §1, §2

For assay [5], the system named is Mac2a anaplastic large cell lymphoma cells. Description: MTT conversion assay, Mac2a. Format: cell-based. As to conditions: Homo sapiens, ALCL, 48 hrs treatment. On the procedure: as §1, §2
The subject of assay [6] is MR20 multiple myeloma cells. Nature of the assay: MTT conversion assay, MR20. It is filed as cell-based, human. The note with it: Homo sapiens, Multiple myeloma cell, 48 hrs treatment. On the procedure:
as §1, §2

Assay [7] deals with HeLa cervical carcinoma cells. Description: MTT conversion assay, HeLa. Format: cell-based, human. As to conditions: Homo sapiens, 48 hrs treatment. As for the experimental part: as §1, §2
In assay [8] the test system is VM-CUB-1 bladder cancer cells. Nature of the assay: MTT conversion assay, VM-CUB-1. Format: cell-based, human. The note with it: Homo sapiens, 48 hrs treatment. On the procedure:
as §1, §2

The test system of the next assay is BRO melanoma cells. Nature of the assay: MTT conversion assay, BRO. Format: cell-based, human. As to conditions: Homo sapiens, 48 hrs treatment. As for the experimental part: as §1, §2
The test system of assay [9] is A2780 ovarian carcinoma cells. Nature of the assay: Clonogenic assay. As to conditions: 12 hours treatment with 2.5 μM or 5.0 μM, colonies on day 10, compared with cis-platin. It is filed as cell-based, human. The source says: The long-term effects of Enone-2 on tumor cell survival were examined by using clonogenic assays which assess the ability of single cells to survive and reproduce to form colonies. […] The colonies formed on day 10 were visualized by staining with crystal violet following cell fixation and enumerated.

The subject of assay [10] is A2780 ovarian carcinoma cells. Nature of the assay: Cell cycle analysis by propidium iodide flow cytometry. As to conditions: 2.5 μM or 5 μM for 24 hours. Format: cell-based, human. On the procedure: The effect of Enone-2 on cell cycle progression was tested to determine if it causes cell cycle arrest, in addition to inducing cell death. To this end, A2780 ovarian carcinoma cells were treated with 2.5 μM or 5 μM Enone-2 for 24 hours, cells were detached, fixed in 1% Neutral Buffered Formalin and stained with 5 μg/ml propidium iodide. Cell suspensions were next analyzed for fluorescence intensities (DNA content) by quantitative flow cytometry.

The subject of assay [11] is p53. Nature of the assay: p53 immunoblot in A2780 cells. It is filed as cell-based, human. The note with it: 2.5 μM or increasing concentrations, 6 hrs or time course. On the procedure:
(§3) FIG. 8: Enones induce the p53 pathway. […] Cell lysates were analyzed for p53 and GAPDH (loading control). (B) A2780 cells were cultured in the presence or absence of 2.5 μM for the indicated time points before being analyzed for p53 and GAPDH levels. (C) Treatment of A2780 cells with 2.5 μM Enone-2 results in the up-regulation of p53-regulated genes (*p<0.05; **p<0.01; ***p<0.001, n=4). (D) Induction of p53 accumulation in AGE60 ovarian carcinoma cells following 6 or 14 hr exposure to 2.5 μM Enone-2. (E) Enone-1 induces the p53 pathway in A2780 cells which were cultured in the presence of 2.5 μM of the drug and analyzed as in (B). (F) Treatment of A2780 cells with 2.5 μM Enone-2 results in the up-regulation of p53-regulated genes (*p<0.05; **p<0.01; ***p<0.001, n=3).
(§4) The effects of Enone-2 on p53 and p53-dependent transcription of cell cycle and cell death-associated genes was confirmed by immunoblotting for p53 and by reverse transcription qPCR (RT-qPCR) for mdm2, p21, bax and bbc3/puma, established p53 target genes.

Assay [12] concerns p53. Description: p53 immunoblot in AGE60 cells. Format: cell-based, human. The note with it: 2.5 μM, 6 or 14 hr. As for the experimental part:
as §3, §4

Assay [13] concerns mdm2, p21, bax and bbc3/puma. Description: RT-qPCR of p53 target genes in A2780 cells. It is filed as cell-based, human. The note with it: 2.5 μM. On the procedure: as §3, §4
In assay [14] the test system is p53. Nature of the assay: siRNA knockdown of Chek2 or Rpl11 and drug-induced p53 activation in A2780 cells. The note with it: A2780 transiently transfected with siRNAs. Format: cell-based, human. As for the experimental part: FIG. 9. […] A2780 cells were cultured for 6 hrs in the presence of drug concentrations as indicated. (B) Effects of siRNA targeting RPL11 (siRPL11), Chek2 (siChek2) or the unrelated luciferase (Luci) genes on RPL11 and Chek2 mRNA levels quantified by RT-PCR. (C) Effects of siRpl11 on Enone-2 and oxaliplatin (OXA)-induced p53 activation. Expression levels relative to GAPDH are indicated; untreated controls (CNT) were given the arbitrary value of 1. […] Expression levels relative to GAPDH are indicated; untreated controls (CNT) were given the arbitrary value of 1.
To further validate this observation, A2780 cells were transiently transfected with siRNAs targeting Chek2 which is required for DDR-induced p53, or Rpl11 which is required for RS-mediated p53 activation. The efficacy and specificity of the knockdowns were confirmed by RT-qPCR (FIG. 9B).

Turning to `C[C@@]1(O)C=CC(=O)[C@H]1c1ccc(F)c2ccccc12` (stereo in doubt) [Enone-2, 5-(4-fluoronaphthalen-1-yl)-4-hydroxy-4-methylcyclopent-2-en-1-one], the IC50 amounted to 0.7 µM in assay [1] (Homo sapiens, A2780, 2780CP, ovarian, cis-platin-resistant, 48 hrs treatment, MTT); 0.9 µM in assay [2]; 1.8 µM in [3]; 1.5 µM in the assay on A549 lung cells; 2.5 µM in assay [4]; 2.3 µM in assay [5]. In addition, the IC50 in [6] came out at 0.1 µM; in assay [7] it was 6.2 µM; in assay [8], 0.8 µM; in the assay with BRO melanoma cells, 3.8 µM. For the same molecule, in [1] (MTT conversion assays), the “sensitivity of 2780CP cells compared with cis-platin-sensitive A2780 cells” value is given as “nearly as sensitive; also recorded: remain sensitive”. Moreover, the “number of colonies formed” value in assay [9] was “lower than the equivalent dose of cis-platin”. The “cell cycle progression (DNA content)” value in [10] is “accumulation of cells in the G2/M phase of the cell cycle in a concentration dependent manner”. Moreover, the “p53 accumulation (immunoblot)” value is “robust p53 accumulation; also recorded: robustly induced p53 accumulation” with p53 [11] and “robust p53 accumulation” in the assay with p53 [12]. Moreover, the “mdm2, p21, bax and bbc3/puma mRNA (p53-dependent gene expression)” value in assay [13] is reported as “time-dependent upregulation”. The “effect of Chek2 or Rpl11 siRNA knockdown on drug-induced p53 activation” value in the assay with p53 [14] is on record as “only Rpl11 knockdown that affected Enone-2 mediated p53 activation”.
